The values below come from publication PMC7284374 (Pharmaceutics, 2020).

Each structure is given as a SMILES string. Counter-ions that a name gives are not always drawn. Like-named read-outs stand apart in the source and are kept apart here.

As usually defined, the AUC is the area under the concentration-time curve, a measure of exposure. A higher AUC goes with more exposure. In general, MRT refers to a mean duration of stay, worked out from the concentration-time curve. For orientation: Vd means the apparent volume that relates the amount in the body to the concentration in plasma or blood. A low value points to little distribution into tissue. By Cmax is commonly meant the peak of the concentration-time curve. The term half-life denotes the time in which the quantity being followed falls by half. Lower therefore signals fast loss.

For data set [1] the following is noted: 10 µM metformin.
Procedure: (§1) Hepatic and intestinal microsomes were prepared by the previously reported method as followings [17, 37, 38]: freshly excised livers were cut in pieces, washed extensively with ice-cold solution (KCl 0.15 M) to remove remaining blood and were homogenized with Tris-HCl buffer (pH 7.5) containing 0.15 M KCl + 50 mM Tris, 1 mM EDTA in a Potter-Elvehjem glass homogenizer for 30 s. The homogenate was centrifuged for 10 min at 10,000× g and 4 °C and then followed by ultracentrifugation of the remaining supernatant for 1 h at 100,000× g and 4 °C. Microsomal pellets were then re-suspended in the same buffer with a hand homogenizer and re-centrifuged for 1 h at 100,000× g and 4 °C. The supernatant was discarded, and the microsomal pellets were carefully overlaid with 0.15 mol KCl buffer and stored at −80 °C. Intestinal microsomes were prepared using freshly excised proximal and middle sections of the small intestine. […]
(§2) The unweighted kinetic data from the hepatic and intestinal microsomes were fitted using a single-site Michaelis−Menten equation; V = Vmax × [S]/(Km + [S]), in which [S] was the substrate concentration. The intrinsic clearance (CLint) was calculated by dividing the Vmax by the Km.
For data set [2] the following is noted: 10 µM metformin. This is another data set of the same source.
Procedure: as §1, §2
The conditions of data set [3]: cited from earlier work.
A short description of data set [4]: in vivo. The following applies: rat, plasma, iv, 30 mg/kg.
Data set [5] is described as follows: in vivo. The following applies: rat, plasma, po, 30 mg/kg.
Data set [6] in a line: in vivo. The following applies: rat.
The nature of data set [7]: Oral pharmacokinetics of verapamil and norverapamil with and without metformin in rats. The following applies: for CL renal: plasma and urine, CLR; for half-life: Terminal half-life; for GI24 h: gastrointestinal tract at 24 h; for Ae0–24 h: urine up to 24 h.
Data set [8] in a line: Intravenous pharmacokinetics of verapamil and norverapamil with and without metformin in rats. Conditions: for CL renal: plasma and urine, CLR; for half-life: Terminal half-life; for GI24 h: gastrointestinal tract at 24 h; for Ae0–24 h: urine up to 24 h.
The conditions of data set [9]: rats, intravenous administration of both drugs together.
For data set [10] the following is noted: rats, oral administration of both drugs together.
Where [11] appears, read: rat, plasma, po, 20 mg/kg, rats, oral verapamil 20 mg/kg, with metformin 30 mg/kg.
Setting [12] is: rat, plasma, po, 20 mg/kg, rats, oral verapamil 20 mg/kg, without metformin.
Where [13] appears, read: rats, oral verapamil 20 mg/kg, with metformin 30 mg/kg.
The mark [14] stands for this setting: rats, oral verapamil 20 mg/kg, without metformin.
Where [15] appears, read: rat, plasma, iv, 20 mg/kg, rats, iv verapamil 20 mg/kg, with metformin 30 mg/kg.
[16] abbreviates: rat, plasma, iv, 20 mg/kg, rats, iv verapamil 20 mg/kg, without metformin.
Setting [17] is: rats, iv verapamil 20 mg/kg, with metformin 30 mg/kg.
Where [18] appears, read: rats, iv verapamil 20 mg/kg, without metformin.

On to `CN(C)C(=N)N=C(N)N` [metformin, Metformin hydrochloride], for which, in data set [1], the “effect of metformin on verapamil metabolism” value is listed as “did not affect verapamil metabolism”. Besides, in data set [2], the “effect of metformin on verapamil metabolism” value is “did not affect verapamil metabolism”. Moreover, in data set [3], the “renal excretion of metformin (OCT2-mediated)” value is on record as ~ 70 % of the metformin dose. In the data set “in vivo [4]”, this compound gave an area under the curve (AUC) of 26500 ng·h/mL, an MRT of 0.357 h and a Vd of 0.349 ± 0.128 L/kg. In the data set “in vivo [5]”, this compound showed an AUC of 7870 ng·h/mL and a Cmax of 2000 ± 328 ng/mL. In “in vivo [6]”, this compound came in with a concentration at 0.5 h of 2910 ± 894 ng/mL.
Take `COc1ccc(CCNCCCC(C#N)(c2ccc(OC)c(OC)c2)C(C)C)cc1OC` (stereo not drawn) [norverapamil]: the CL renal in data set [7] (rat, po, 20 mg/kg, rats, oral verapamil 20 mg/kg, with metformin 30 mg/kg) worked out at 0.562 ± 0.445 mL/min/kg; in data set [7] (rat, po, 20 mg/kg, rats, oral verapamil 20 mg/kg, without metformin), 0.336 ± 0.107 mL/min/kg; in data set [8] (rat, iv, 20 mg/kg, rats, iv verapamil 20 mg/kg, with metformin 30 mg/kg) it was 0.0626 ± 0.0535 mL/min/kg; in [8] (rat, iv, 20 mg/kg, rats, iv verapamil 20 mg/kg, without metformin), 0.109 ± 0.102 mL/min/kg. Besides, the Tmax in data set [7] (rat, plasma, po, 20 mg/kg) is 0.75 h; in data set [7] (rats, oral verapamil 20 mg/kg, with metformin 30 mg/kg, median (range)) it was 45 (15–105) min; in data set [8] (rat, plasma, iv, 20 mg/kg) it was 1 h; in [8] (rats, iv verapamil 20 mg/kg, with metformin 30 mg/kg, median (range)), 60 (30−90) min. Also, the AUC in data set [7] (setting [11]) is 898 ng·h/mL; in [7] (setting [12]), 1140 ng·h/mL; in data set [8] (setting [15]), 3320 ng·h/mL; in [8] (setting [16]) it was 3130 ng·h/mL. The Cmax came to 273 ± 123 ng/mL in data set [7] (setting [11]), 267 ± 141 ng/mL in data set [7] (setting [12]), 1090 ± 308 ng/mL in data set [8] (setting [15]) and 1240 ± 386 ng/mL in data set [8] (setting [16]). The half-life in [7] (setting [11]) turned out to be 1.95 ± 0.742 h; in data set [7] (setting [12]) it was 2.8 ± 1.22 h; in data set [8] (setting [15]), 1.05 ± 0.253 h; in data set [8] (setting [16]), 0.847 ± 0.17 h. Besides, the GI24 h in data set [7] (setting [13]) is 0.0782 ± 0.0514 % of dose; in [7] (setting [14]) it was 0.0870 ± 0.0665 % of dose; in data set [8] (setting [17]), 0.126 ± 0.0927 % of dose; in [8] (setting [18]), 0.146 ± 0.0841 % of dose. For the same compound, the “Ae0–24 h” value in [7] (setting [13]) was 0.113 ± 0.0522 % of dose; in [7] (setting [14]), 0.104 ± 0.0567 % of dose; in data set [8] (setting [17]), 0.0585 ± 0.0453 % of dose; in [8] (setting [18]), 0.0872 ± 0.0691 % of dose.
Regarding `COc1ccc(CCN(C)CCCC(C#N)(c2ccc(OC)c(OC)c2)C(C)C)cc1OC` (stereo not drawn) [verapamil, Verapamil hydrochloride], the “effect of verapamil on the metformin concentration in the liver” value in [9] and in [10] was “did not cause any change” throughout.
